Test results published in EP1602719B1, “Control of transglutaminase catalyzed protein modification by selective irreversible transglutaminase inhibitors” (N-Zyme BioTec GmbH, priority 2004, dated 2005).
Peptide text beside a SMILES is read from it. * marks the point of attachment. Cbz = O=C(OCc1ccccc1)*; Acryloyl = C=CC(=O)*

Target: T1, Meerschweinchenlebertransglutaminase (Cavia cutleri, UniProt P08587)
T1 sequence (P08587 1-690): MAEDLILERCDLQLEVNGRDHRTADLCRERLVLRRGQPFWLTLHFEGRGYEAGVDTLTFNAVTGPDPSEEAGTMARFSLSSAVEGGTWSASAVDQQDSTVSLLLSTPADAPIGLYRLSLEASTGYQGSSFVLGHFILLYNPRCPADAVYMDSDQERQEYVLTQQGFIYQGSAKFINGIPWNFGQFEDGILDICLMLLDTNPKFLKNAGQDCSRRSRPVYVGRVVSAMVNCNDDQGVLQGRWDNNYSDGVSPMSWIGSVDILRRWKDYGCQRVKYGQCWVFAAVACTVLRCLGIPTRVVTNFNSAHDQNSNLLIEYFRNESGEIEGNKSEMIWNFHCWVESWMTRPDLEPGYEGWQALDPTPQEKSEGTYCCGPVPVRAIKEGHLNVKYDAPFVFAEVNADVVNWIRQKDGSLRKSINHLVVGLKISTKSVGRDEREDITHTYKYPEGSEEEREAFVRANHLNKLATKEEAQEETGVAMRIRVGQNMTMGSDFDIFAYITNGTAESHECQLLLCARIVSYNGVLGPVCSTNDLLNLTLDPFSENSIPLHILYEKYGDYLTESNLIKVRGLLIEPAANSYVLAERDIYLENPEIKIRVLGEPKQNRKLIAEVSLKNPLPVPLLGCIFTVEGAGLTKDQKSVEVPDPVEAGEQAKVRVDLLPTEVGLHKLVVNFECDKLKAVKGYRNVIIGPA
Assay: Transglutaminase-catalysed labelling of recombinant hLeptin with Z-Gln-Gly-CAD-DNS, reaction stopped by inhibitor, RP-HPLC (Beispiel 7)
Type: biochemical, Meerschweinchen
Settings: inhibitor 0,5 mM
Protocol: Alle nachfolgend beschriebenen Experimente wurden nach dem gleichen Standardprotokoll durchgeführt. Dabei werden das jeweilige Zielprotein und das farbstofftragende amin- oder glutaminhaltige Substrat in einem geeigneten Puffer vorgelegt und für 5 Min. auf 37°C temperiert. Anschließend wird durch Zugabe von Transglutaminase die Reaktion gestartet. Nach variierenden Inkubationszeiten, durch die jeweils verschiedene Markierungsgrade erreicht werden, wird durch Zugabe eines Inhibitors die Transglutaminase vollständig und irreversibel inaktiviert (Reaktionsabbruch 1). In Kontrollexperimenten wird die Markierungsreaktion durch Abtrennung des ungebundenen, farbstofftragenden Substrates unterbrochen (Reaktionsabbruch 2). Die Abtrennung des ungebundenen Farbstoffes erfolgt unter Normaldruck über eine PD-10-Säule (Amersham Biosciences). Dieses allgemein einsetzbare Verfahren zur schnellen Abtrennung kleiner Moleküle von Makromolekülen wie Proteinen basiert auf dem Prinzip der Gelpermeationschromatographie und kann als das vorteilhafteste Verfahren zur Reaktionskontrolle nach dem Stand der Technik angesehen werden. Andere Verfahren, mit denen die weitere katalytische Markierungsreaktion abgebrochen werden könnte, sind weniger geeignet oder nicht allgemein einsetzbar (z. B. thermische, unspezifische chemische oder affinitätschromatographische Methoden). Die Gelpermeationschromatographie wurde jeweils so schnell wie technisch machbar durchgeführt. Dazu wird auf die vorkonditionierte PD-10-Säule 2,5 ml des Reaktionsvolumens aufgetragen und die Lösung vollständig in das Trennmaterial eingebracht. Anschließend wird das Protein mit 3,5 ml Puffer eluiert. Die niedermolekularen Substanzen verbleiben auf der Säule. Der Gesamtprozess benötigt eine Zeitspanne von mindestens 3 Minuten. Während dieser Zeit kann Transglutaminase weiter auf das Zielprotein einwirken. […]

## C=CC(=O)NCCCC[C@H](NC(=O)OCc1ccccc1)C(=O)NCC(=O)O [Z-Lys(Acryloylamid)-Gly-OH, N^α-Benzyloxycarbonyl-L-lysinyl(ε-acryloyl)glycin] (Cbz-Lys(Acryloyl)-Gly-OH)
Added after 5 Min., GpTGase 0,25 U/ml, pH 8
  Inaktivierung der Meerschweinchenlebertransglutaminase: vollständig
Stopped reaction mixture kept at RT for 30 and 60 Min.
  weitere Labeling- und Quervernetzungsreaktionen: keine weitere Labeling- und Quervernetzungsreaktionen
Stored 10 days at -20°C, then one hour at RT
  weitere enzymatische Reaktionen nach Lagerung: keine weiteren enzymatischen Reaktionen mehr
